From PubChem BioAssay (NCI)
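GI50 = concentration required for 50% inhibition of growth. Definition used: TGI = concentration required for complete inhibition of growth.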

Assays:
Test in all cases: NCI-60 cell line screen, 384-well format
[1] = system: ACHN renal
[2] = system: UACC-257 melanoma
[3] = system: HOP-62 NSCLC
[4] = system: HT29 colon
[5] = system: RPMI-8226 leukemia
[6] = system: NCI-H460 NSCLC
[7] = system: UACC-62 melanoma
[8] = system: HL-60(TB) leukemia
[9] = system: OVCAR-3 ovarian
[10] = system: HCT-15 colon
[11] = system: KM12 colon
[12] = system: SW-620 colon
[13] = system: SK-MEL-28 melanoma
[14] = system: CCRF-CEM leukemia
[15] = system: OVCAR-8 ovarian
[16] = system: HOP-92 NSCLC
[17] = system: SF-295 CNS
[18] = system: RXF 393 renal
[19] = system: SF-539 CNS
[20] = system: LOX IMVI melanoma
[21] = system: SK-MEL-5 melanoma
[22] = system: CAKI-1 renal
[23] = system: OVCAR-4 ovarian
[24] = system: HS 578T breast
[25] = system: MDA-MB-435 melanoma
[26] = system: MOLT-4 leukemia
[27] = system: HCT-116 colon
[28] = system: DU-145 prostate
[29] = system: MDA-MB-468 breast
[30] = system: NCI-H226 lung
[31] = system: SNB-19 CNS
[32] = system: COLO 205 colon
[33] = system: HCC-2998 colon
[34] = system: NCI/ADR-RES ovarian
[35] = system: SN12C renal
[36] = system: SNB-75 CNS
[37] = system: M14 melanoma
[38] = system: K-562 leukemia
[39] = system: U251 glioblastoma
[40] = system: NCI-H322M lung
[41] = system: TK-10 renal
[42] = system: MALME-3M melanoma
[43] = system: PC-3 prostate
[44] = system: NCI-H23 lung
[45] = system: IGROV1 ovarian
[46] = system: 786-0 renal
[47] = system: SK-MEL-2 melanoma
[48] = system: MCF7 breast
[49] = system: BT-549 breast
[50] = system: A498 renal
[51] = system: EKVX NSCLC
[52] = system: SF-268 CNS
[53] = system: NCI-H522 lung
[54] = system: A549 NSCLC
[55] = system: SK-OV-3 ovarian

CN(C)CCN(C)CC(C)(C)C(=O)/C=C/c1ccc(Cl)c(Cl)c1 showed a GI50 [1] of 1570 nM, a TGI [1] of 2940 nM and a GI50 [2] of 1450 nM. The TGI [2] was 2770 nM, the GI50 [3] was 1720 nM and the TGI [3] was 3100 nM. For the same compound, the GI50 [4] was 1440 nM, the TGI [4] was 2990 nM and the GI50 [5] was 319 nM. It also gave a TGI [5] of 667 nM, a GI50 [6] of 1410 nM and a TGI [6] of 2780 nM. The GI50 [7] was 1410 nM, the TGI [7] was 2720 nM and the GI50 [8] was 161 nM. It also gave a TGI [8] of 309 nM, a GI50 [9] of 1350 nM and a TGI [9] of 2640 nM. The GI50 [10] was 1230 nM, the TGI [10] was 2530 nM and the GI50 [11] was 810 nM. For the same compound, the TGI [11] was 2060 nM, the GI50 [12] was 1340 nM and the TGI [12] was 2650 nM. The GI50 [13] was 1890 nM, the TGI [13] was 3310 nM and the GI50 [14] was 216 nM. For the same compound, the TGI [14] was 479 nM, the GI50 [15] was 1300 nM and the TGI [15] was 2590 nM. For the same compound, the GI50 [16] was 1090 nM, the TGI [16] was 2290 nM and the GI50 [17] was 1560 nM. The TGI [17] was 2940 nM, the GI50 [18] was 1080 nM and the TGI [18] was 2270 nM. The GI50 [19] was 1340 nM, the TGI [19] was 2630 nM and the GI50 [20] was 1640 nM. It also gave a TGI [20] of 3020 nM, a GI50 [21] of 1190 nM and a TGI [21] of 2430 nM. The GI50 [22] was 1080 nM, the TGI [22] was 2290 nM and the GI50 [23] was 1510 nM. For the same compound, the TGI [23] was 2850 nM, the GI50 [24] was 2000 nM and the TGI [24] was 3440 nM. For the same compound, the GI50 [25] was 1360 nM, the TGI [25] was 2650 nM and the GI50 [26] was 215 nM. For the same compound, the TGI [26] was 459 nM, the GI50 [27] was 1270 nM and the TGI [27] was 2590 nM. The GI50 [28] was 1600 nM, the TGI [28] was 3000 nM and the GI50 [29] was 510 nM. The TGI [29] was 902 nM, the GI50 [30] was 1470 nM and the TGI [30] was 2790 nM. The GI50 [31] was 1750 nM, the TGI [31] was 3170 nM and the GI50 [32] was 1600 nM. For the same compound, the TGI [32] was 2980 nM, the GI50 [33] was 1500 nM and the TGI [33] was 2840 nM. The GI50 [34] was 1570 nM, the TGI [34] was 2920 nM and the GI50 [35] was 1320 nM. The TGI [35] was 2600 nM, the GI50 [36] was 2020 nM and the TGI [36] was 3450 nM. The GI50 [37] was 1690 nM, the TGI [37] was 3080 nM and the GI50 [38] was 1820 nM. For the same compound, the TGI [38] was 3250 nM, the GI50 [39] was 1520 nM and the TGI [39] was 2870 nM. The GI50 [40] was 1310 nM, the TGI [40] was 2600 nM and the GI50 [41] was 1440 nM. It also gave a TGI [41] of 2750 nM, a GI50 [42] of 2050 nM and a TGI [42] of 3490 nM. The GI50 [43] was 1510 nM, the TGI [43] was 2860 nM and the GI50 [44] was 1470 nM. It also gave a TGI [44] of 2840 nM, a GI50 [45] of 1480 nM and a TGI [45] of 2810 nM. The GI50 [46] was 1460 nM, the TGI [46] was 2790 nM and the GI50 [47] was 292 nM. It also gave a TGI [47] of 644 nM, a GI50 [48] of 796 nM and a TGI [48] of 2050 nM. It also gave a GI50 [49] of 1680 nM, a TGI [49] of 3060 nM and a GI50 [50] of 1450 nM. It also gave a TGI [50] of 2770 nM, a GI50 [51] of 1650 nM and a TGI [51] of 3080 nM. The GI50 [52] was 1930 nM, the TGI [52] was 3350 nM and the GI50 [53] was 1330 nM. For the same compound, the TGI [53] was 2620 nM, the GI50 [54] was 1720 nM and the TGI [54] was 3130 nM. It also gave a GI50 [55] of 1280 nM and a TGI [55] of 2550 nM.
